≈ marks a conversion by molar mass, not a printed value. Like-named read-outs stand apart in the source and are kept apart here. Residues, ends and D or L forms follow the SMILES beside them.
Legend:
physchem [1] = details: water
Method: Solubilities of Larazotide acetate and the corresponding chloride salt in water were tested at 20° C. after 14 hours of vigorous stirring in the presence of residual solid. Concentrations of peptide are measured by standardized HPLC.

[2] = Method: The stability of the chloride salt was tested at 25° C. without humidity control (in closed bottles). The stability of the acetate salt was determined at 25° C./60% RH.
physchem [3] = assay: physchem
Method: Approximate solubilities of Larazotide acetate Form A in different solvents were determined. Aliquots of the test solvent were added to weighed samples of Larazotide. The samples were sonicated to aid in dissolution. Visual inspection was used to determine if a sample had dissolved. The approximate solubility was calculated from the total amount of solvent added.

[4] = 5% to 95% RH sorption/desorption
Description: Moisture sorption/desorption data were collected on a VTI SGA-100 Vapor Sorption Analyzer. Sorption and desorption data were collected over a range of 5% to 95% relative humidity (RH) at 10% RH intervals under a nitrogen purge. Samples were not dried prior to analysis. Equilibrium criteria used for analysis were less than 0.0100% weight change in five minutes, with a maximum equilibration time of three hours if the weight criterion was not met. Data were not corrected for the initial moisture content of the samples. NaCl and PVP were used as calibration standards.

[5] = 40 C/75% RH, 1 and 2 months
Method: An appropriate amount of amorphous larazotide acetate and crystalline larazotide acetate was used for a stability study to evaluate quality parameters (purity, impurities, assay and ID) for these materials under various storage conditions. Data was collected at two time points, namely at 1 month and at 2 months of storage under the conditions tested.
Data was generated for storage of the three larazotide acetate samples stored at 40 C/75% RH. All three samples were analyzed at 1 and 2 months.

[6] = 25° C. without humidity control (closed bottles), timepoint 0
[7] = 25° C. without humidity control (closed bottles), timepoint 1
[8] = 25° C. without humidity control (closed bottles), timepoint 2

With `CC(C)C[C@H](NC(=O)[C@@H](NC(=O)CNC(=O)CN)C(C)C)C(=O)N[C@H](C(=O)N[C@@H](CCC(N)=O)C(=O)N1CCC[C@H]1C(=O)NCC(=O)O)C(C)C` [Larazotide Chloride] (H-GGVLVQPG-OH) as the compound, how does the solubility at 14 h (physchem [1]) read?
Its solubility at 14 h is ≥ 300000 µg/mL.

What about the rate of deamidation ([2]; 25° C. without humidity control (closed bottles)) of the same compound?
The rate of deamidation was “about 1 %/month”.

And the “% HPLC Area (purity)” value [2, 6]?
The value was 98.4%.

What about the “Deamidated “Glu” % HPLC area” value [2, 6] of the same compound?
Its value is 1.06%.

And the “% HPLC Area (purity)” value [2, 7]?
Its value is 97.8%.

What about the “Deamidated “Glu” % HPLC area” value [2, 7] of the same compound?
The value was 1.85%.

What about the “% HPLC Area (purity)” value [2, 8] of the same compound?
The value was 96.1%.

And the “Deamidated “Glu” % HPLC area” value [2, 8]?
Its value is 3.02%.

With `CC(C)C[C@H](NC(=O)[C@@H](NC(=O)CNC(=O)CN)C(C)C)C(=O)N[C@H](C(=O)N[C@@H](CCC(N)=O)C(=O)N1CCC[C@H]1C(=O)NCC(=O)O)C(C)C` [Form A] (H-GGVLVQPG-OH) as the compound, how does the solubility (physchem [3]; (1:1) DCM/MeOH) read?
Its solubility is < 3000 µg/mL.

And the solubility (physchem [3]; (1:1) Water/ACN)?
The solubility was < 3000 µg/mL.

What about the solubility (physchem [3]; (1:1) Water/Dioxane) of the same compound?
Its solubility is < 3000 µg/mL.

And the solubility (physchem [3]; (1:1) Water/MeOH)?
Its solubility is < 3000 µg/mL.

And the solubility (physchem [3]; Acetone)?
The solubility was < 4000 µg/mL.

And the solubility (physchem [3]; Acetonitrile (ACN))?
Its solubility is < 4000 µg/mL.

What about the solubility (physchem [3]; Dichloromethane (DCM)) of the same compound?
Its solubility is < 4000 µg/mL.

And the solubility (physchem [3]; Dimethyl sulfoxide (DMSO))?
Its solubility is < 4000 µg/mL.

And the solubility (physchem [3]; Dioxane)?
The solubility was < 4000 µg/mL.

What about the solubility (physchem [3]; Ethanol (EtOH)) of the same compound?
Its solubility is < 4000 µg/mL.

What about the solubility (physchem [3]; Ethyl acetate (EtOAc)) of the same compound?
Its solubility is < 4000 µg/mL.

What about the solubility (physchem [3]; Methanol (MeOH)) of the same compound?
Its solubility is < 4000 µg/mL.

What about the solubility (physchem [3]; Tetrahydrofuran (THF)) of the same compound?
Its solubility is < 4000 µg/mL.

What about the solubility (physchem [3]; Trifluoroethanol (TFE)) of the same compound?
The solubility was 4000 µg/mL (≈ 5.51 mM).

And the solubility (physchem [3]; water)?
The solubility was 8000 µg/mL (≈ 11 mM).

And the “solid form by XRPD following the moisture sorption experiment” value [4]?
Its value is “still Form A”.

With `CC(C)C[C@H](NC(=O)[C@@H](NC(=O)CNC(=O)CN)C(C)C)C(=O)N[C@H](C(=O)N[C@@H](CCC(N)=O)C(=O)N1CCC[C@H]1C(=O)NCC(=O)O)C(C)C` [amorphous larazotide acetate] (H-GGVLVQPG-OH) as the compound, how does the “overall rate of degradation” value [5] read?
The value was ~10 % per month.

With `CC(C)C[C@H](NC(=O)[C@@H](NC(=O)CNC(=O)CN)C(C)C)C(=O)N[C@H](C(=O)N[C@@H](CCC(N)=O)C(=O)N1CCC[C@H]1C(=O)NCC(=O)O)C(C)C` [Larazotide Acetate] (H-GGVLVQPG-OH) as the compound, how does the rate of deamidation ([2]; 25° C./60% RH) read?
Its rate of deamidation is “about 0.05 %/month”.

And the “% HPLC Area (purity)” value ([2]; 25° C./60% RH, timepoint 0)?
Its value is 98.7%.

And the “Deamidated “Glu” % HPLC area” value ([2]; 25° C./60% RH, timepoint 0)?
The value was 0.19%.

What about the “% HPLC Area (purity)” value ([2]; 25° C./60% RH, timepoint 1) of the same compound?
The value was 98.4%.

What about the “Deamidated “Glu” % HPLC area” value ([2]; 25° C./60% RH, timepoint 1) of the same compound?
Its value is 0.22%.

What about the “% HPLC Area (purity)” value ([2]; 25° C./60% RH, timepoint 2) of the same compound?
Its value is 98.2%.

And the “Deamidated “Glu” % HPLC area” value ([2]; 25° C./60% RH, timepoint 2)?
The value was 0.26%.

What about the “% HPLC Area (purity)” value ([2]; 25° C./60% RH, timepoint 3) of the same compound?
The value was 97.7%.

What about the “Deamidated “Glu” % HPLC area” value ([2]; 25° C./60% RH, timepoint 3) of the same compound?
Its value is 0.40%.

What about the “% HPLC Area (purity)” value ([2]; 25° C./60% RH, timepoint 6) of the same compound?
The value was 96.1%.

What about the “Deamidated “Glu” % HPLC area” value ([2]; 25° C./60% RH, timepoint 6) of the same compound?
Its value is 0.60%.
